Test in all cases: pIC50, kinobeads binding competition
One experiment addresses UniProt P80192. The method in brief: (§1)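 Fold changes relative to vehicle, from biological duplicates, were fitted with logistic dose-response models in the R drc package to give pIC50. These fold changes came from TMT10 LC-MS/MS quantification of digested Kinobeads-bound proteins. Compound was applied at nine concentrations (top 30 μM) either to live Jurkat cells in 1:4 steps for 60 min at 37 °C before lysis, or to Jurkat lysate or a 1:1:1:1 HEK293/K-562/HepG2/placenta lysate mix in 1:5 steps for 60 min at 4 °C.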

Another experiment concerns the target UniProt Q02779. Conditions: cell material: Lysate mix. The method in brief:
as §1

The next experiment has as its target T1, TBK1 (UniProt Q9UHD2).
T1 sequence (whole entry): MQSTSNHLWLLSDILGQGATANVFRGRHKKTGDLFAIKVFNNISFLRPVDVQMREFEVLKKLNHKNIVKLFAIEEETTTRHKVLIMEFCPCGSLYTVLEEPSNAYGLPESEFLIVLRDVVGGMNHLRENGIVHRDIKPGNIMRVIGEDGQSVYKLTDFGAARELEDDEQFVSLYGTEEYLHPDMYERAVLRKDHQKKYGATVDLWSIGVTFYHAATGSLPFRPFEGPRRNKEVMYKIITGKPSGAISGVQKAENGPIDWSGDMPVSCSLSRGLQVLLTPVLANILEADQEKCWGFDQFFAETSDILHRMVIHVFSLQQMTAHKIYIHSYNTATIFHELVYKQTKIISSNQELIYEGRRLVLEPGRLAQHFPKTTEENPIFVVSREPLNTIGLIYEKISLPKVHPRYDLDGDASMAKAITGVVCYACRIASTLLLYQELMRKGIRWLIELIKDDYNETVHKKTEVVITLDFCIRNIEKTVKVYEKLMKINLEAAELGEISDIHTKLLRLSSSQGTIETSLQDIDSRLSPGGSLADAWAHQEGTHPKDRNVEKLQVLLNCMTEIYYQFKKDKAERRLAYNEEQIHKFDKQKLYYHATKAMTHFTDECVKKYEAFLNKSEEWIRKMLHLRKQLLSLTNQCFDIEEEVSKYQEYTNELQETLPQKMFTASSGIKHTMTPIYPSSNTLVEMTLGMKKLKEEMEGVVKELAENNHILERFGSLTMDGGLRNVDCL
The procedure, abridged: as §1

The target in the next experiment is T2, STRADA (UniProt Q7RTN6).
T2 sequence (whole entry): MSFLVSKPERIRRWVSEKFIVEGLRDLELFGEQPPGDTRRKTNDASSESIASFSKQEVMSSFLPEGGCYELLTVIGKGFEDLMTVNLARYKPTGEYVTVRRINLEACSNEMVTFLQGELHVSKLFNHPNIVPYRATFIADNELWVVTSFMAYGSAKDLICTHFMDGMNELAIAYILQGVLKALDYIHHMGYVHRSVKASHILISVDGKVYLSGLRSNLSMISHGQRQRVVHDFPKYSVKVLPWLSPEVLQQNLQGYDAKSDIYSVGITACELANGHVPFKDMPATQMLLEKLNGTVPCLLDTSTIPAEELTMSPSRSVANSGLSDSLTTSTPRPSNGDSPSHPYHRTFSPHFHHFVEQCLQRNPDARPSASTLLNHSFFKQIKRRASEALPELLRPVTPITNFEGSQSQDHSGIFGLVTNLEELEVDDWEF
The procedure, abridged: as §1

The target in the next experiment is UniProt P16234. The note with it: cell material: Lysate mix. The method in brief: as §1
In another experiment the target is T3, MASTL (UniProt Q96GX5).
T3 sequence (whole entry): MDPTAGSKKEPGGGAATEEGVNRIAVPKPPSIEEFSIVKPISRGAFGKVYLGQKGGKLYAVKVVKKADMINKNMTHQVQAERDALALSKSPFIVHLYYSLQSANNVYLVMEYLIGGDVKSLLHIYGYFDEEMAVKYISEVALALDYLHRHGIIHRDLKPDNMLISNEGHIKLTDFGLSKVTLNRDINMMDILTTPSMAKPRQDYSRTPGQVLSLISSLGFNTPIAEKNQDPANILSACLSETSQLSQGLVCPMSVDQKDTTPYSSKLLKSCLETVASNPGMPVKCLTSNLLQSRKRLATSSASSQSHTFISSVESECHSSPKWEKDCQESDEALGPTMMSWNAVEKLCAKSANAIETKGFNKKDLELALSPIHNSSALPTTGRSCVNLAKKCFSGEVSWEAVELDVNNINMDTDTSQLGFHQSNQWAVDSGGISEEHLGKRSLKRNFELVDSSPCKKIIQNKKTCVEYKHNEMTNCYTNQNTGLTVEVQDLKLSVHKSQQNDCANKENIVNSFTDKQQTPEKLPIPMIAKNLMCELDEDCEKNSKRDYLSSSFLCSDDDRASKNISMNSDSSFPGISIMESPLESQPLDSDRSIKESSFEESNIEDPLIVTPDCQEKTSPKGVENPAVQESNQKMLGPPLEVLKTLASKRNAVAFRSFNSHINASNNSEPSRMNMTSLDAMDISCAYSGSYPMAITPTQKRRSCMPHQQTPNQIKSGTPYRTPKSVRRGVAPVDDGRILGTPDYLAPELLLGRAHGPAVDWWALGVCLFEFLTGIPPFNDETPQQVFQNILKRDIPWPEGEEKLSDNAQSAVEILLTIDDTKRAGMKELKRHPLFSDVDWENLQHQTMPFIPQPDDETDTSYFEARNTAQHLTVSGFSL
The procedure, abridged:
as §1

The next experiment addresses UniProt Q04912. The note with it: cell material: Lysate mix. The method in brief:
as §1

The next experiment has as its target CLK4 (UniProt Q9HAZ1). The procedure, abridged: as §1
For a further experiment, the target named is PAK2 (UniProt Q13177). The method in brief: as §1
Chain of PAK2 (Q13177 whole entry): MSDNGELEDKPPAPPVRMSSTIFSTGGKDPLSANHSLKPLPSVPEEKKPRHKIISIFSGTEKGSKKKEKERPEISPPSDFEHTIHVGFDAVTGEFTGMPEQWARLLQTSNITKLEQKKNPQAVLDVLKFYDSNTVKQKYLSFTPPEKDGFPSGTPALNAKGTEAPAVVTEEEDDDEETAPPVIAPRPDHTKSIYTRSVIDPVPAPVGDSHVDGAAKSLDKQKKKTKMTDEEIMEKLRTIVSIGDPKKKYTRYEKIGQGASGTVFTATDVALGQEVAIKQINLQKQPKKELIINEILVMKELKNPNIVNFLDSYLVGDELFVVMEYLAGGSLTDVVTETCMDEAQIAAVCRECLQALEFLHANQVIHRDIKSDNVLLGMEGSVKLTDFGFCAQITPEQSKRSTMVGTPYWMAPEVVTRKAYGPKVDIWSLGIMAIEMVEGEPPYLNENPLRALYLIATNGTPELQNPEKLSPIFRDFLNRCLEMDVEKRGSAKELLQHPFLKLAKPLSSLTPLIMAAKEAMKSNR
The next experiment concerns the target UniProt Q15303. Conditions: cell material: Lysate mix. The procedure, abridged: as §1
In a further experiment the target is CDC7 (UniProt O00311). The procedure, abridged:
as §1

Some results are limits rather than exact numbers.

As usually defined, the pIC50 is the negative decadic logarithm of the IC50, by convention in mol/L.

Chain of UniProt Q15303 (Q15303 whole entry): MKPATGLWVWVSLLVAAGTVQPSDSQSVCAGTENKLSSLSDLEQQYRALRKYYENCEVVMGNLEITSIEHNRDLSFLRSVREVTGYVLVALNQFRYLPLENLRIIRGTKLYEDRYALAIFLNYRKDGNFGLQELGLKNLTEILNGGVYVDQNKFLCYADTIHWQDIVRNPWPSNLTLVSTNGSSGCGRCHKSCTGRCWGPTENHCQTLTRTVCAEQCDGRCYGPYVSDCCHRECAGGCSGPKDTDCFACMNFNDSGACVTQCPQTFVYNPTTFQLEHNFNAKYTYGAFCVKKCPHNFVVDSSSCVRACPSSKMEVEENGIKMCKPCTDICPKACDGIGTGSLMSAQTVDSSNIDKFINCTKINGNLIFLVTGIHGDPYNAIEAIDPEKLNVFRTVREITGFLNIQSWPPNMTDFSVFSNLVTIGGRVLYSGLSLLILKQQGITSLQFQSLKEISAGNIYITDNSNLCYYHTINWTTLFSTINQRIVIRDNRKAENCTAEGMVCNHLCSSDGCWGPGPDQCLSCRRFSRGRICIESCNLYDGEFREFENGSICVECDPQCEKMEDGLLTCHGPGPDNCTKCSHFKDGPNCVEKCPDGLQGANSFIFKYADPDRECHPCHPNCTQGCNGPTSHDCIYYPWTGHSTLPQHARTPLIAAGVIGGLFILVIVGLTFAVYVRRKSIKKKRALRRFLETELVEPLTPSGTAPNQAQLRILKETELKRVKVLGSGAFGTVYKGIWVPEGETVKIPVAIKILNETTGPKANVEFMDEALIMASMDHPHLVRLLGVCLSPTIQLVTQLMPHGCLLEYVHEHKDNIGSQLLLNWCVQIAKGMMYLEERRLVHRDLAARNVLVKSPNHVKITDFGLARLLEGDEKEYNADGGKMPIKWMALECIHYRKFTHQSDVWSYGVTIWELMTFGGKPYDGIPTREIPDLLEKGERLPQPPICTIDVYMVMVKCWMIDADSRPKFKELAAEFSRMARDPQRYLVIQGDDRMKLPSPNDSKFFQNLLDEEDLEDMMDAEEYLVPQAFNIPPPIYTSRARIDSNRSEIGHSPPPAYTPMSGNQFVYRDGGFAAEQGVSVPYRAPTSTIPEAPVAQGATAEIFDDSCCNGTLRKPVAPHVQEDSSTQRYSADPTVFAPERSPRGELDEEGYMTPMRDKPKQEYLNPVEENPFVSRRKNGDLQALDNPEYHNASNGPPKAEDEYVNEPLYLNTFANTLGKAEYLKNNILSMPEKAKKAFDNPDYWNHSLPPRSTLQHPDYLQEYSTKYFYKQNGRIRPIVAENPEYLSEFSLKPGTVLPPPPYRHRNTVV
Chain of UniProt Q04912 (Q04912 whole entry): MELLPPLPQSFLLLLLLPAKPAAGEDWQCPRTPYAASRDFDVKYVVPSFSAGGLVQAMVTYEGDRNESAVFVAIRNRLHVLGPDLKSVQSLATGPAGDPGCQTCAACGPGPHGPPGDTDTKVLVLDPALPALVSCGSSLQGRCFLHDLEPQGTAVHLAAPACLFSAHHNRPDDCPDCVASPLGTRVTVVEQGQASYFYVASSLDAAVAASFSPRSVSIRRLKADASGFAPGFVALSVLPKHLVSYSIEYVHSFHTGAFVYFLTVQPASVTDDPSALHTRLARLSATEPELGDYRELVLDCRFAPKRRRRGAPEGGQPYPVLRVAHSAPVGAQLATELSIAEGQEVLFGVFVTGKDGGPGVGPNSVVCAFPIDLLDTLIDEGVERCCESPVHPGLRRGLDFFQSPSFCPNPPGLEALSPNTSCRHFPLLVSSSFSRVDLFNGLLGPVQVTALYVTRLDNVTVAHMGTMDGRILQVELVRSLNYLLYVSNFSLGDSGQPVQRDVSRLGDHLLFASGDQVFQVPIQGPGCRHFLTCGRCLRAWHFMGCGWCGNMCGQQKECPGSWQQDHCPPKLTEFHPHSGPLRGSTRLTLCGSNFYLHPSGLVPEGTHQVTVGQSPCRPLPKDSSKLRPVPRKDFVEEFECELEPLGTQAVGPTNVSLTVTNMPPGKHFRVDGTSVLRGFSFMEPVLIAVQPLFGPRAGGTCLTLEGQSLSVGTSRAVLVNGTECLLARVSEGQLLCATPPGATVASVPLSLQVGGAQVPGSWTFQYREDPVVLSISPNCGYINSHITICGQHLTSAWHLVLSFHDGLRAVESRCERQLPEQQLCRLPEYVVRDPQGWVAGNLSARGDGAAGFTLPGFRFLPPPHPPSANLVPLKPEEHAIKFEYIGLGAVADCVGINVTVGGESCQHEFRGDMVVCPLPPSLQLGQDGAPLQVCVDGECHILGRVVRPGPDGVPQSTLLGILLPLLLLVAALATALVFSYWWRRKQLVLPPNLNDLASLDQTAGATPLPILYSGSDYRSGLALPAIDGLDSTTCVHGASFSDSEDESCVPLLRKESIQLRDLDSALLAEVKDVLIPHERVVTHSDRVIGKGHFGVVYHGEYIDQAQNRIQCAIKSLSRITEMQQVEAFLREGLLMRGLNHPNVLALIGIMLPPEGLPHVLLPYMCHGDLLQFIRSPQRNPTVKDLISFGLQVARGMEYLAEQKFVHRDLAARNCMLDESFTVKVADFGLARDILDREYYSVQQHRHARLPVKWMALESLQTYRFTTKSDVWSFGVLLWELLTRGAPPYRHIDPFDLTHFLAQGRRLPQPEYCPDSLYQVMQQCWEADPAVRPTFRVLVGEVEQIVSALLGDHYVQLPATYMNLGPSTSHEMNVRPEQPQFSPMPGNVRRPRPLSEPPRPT
Chain of UniProt Q02779 (Q02779 whole entry, looked up): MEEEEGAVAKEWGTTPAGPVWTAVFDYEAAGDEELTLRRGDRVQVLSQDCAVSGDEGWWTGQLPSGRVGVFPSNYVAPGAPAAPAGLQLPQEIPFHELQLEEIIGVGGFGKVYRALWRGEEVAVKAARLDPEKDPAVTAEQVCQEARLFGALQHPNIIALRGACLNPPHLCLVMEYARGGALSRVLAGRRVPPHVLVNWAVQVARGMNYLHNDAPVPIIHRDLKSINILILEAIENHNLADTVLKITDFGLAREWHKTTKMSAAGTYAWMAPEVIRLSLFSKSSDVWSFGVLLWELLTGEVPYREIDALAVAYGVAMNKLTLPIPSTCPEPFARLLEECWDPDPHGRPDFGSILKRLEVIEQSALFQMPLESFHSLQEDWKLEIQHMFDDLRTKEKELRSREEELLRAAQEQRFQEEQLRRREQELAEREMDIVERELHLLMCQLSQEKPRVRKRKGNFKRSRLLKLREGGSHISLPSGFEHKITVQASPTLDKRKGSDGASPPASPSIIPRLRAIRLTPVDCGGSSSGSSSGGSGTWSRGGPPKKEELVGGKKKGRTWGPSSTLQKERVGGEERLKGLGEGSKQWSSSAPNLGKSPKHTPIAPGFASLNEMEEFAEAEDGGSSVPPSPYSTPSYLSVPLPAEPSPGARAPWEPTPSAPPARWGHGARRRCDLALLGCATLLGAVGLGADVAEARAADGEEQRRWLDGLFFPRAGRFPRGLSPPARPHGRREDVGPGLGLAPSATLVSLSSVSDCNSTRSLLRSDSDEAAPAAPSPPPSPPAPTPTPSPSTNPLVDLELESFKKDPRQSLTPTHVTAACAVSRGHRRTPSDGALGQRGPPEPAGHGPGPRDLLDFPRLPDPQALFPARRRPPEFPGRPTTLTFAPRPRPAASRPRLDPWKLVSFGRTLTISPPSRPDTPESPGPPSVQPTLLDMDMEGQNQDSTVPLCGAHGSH
Chain of CDC7 (O00311 whole entry, looked up): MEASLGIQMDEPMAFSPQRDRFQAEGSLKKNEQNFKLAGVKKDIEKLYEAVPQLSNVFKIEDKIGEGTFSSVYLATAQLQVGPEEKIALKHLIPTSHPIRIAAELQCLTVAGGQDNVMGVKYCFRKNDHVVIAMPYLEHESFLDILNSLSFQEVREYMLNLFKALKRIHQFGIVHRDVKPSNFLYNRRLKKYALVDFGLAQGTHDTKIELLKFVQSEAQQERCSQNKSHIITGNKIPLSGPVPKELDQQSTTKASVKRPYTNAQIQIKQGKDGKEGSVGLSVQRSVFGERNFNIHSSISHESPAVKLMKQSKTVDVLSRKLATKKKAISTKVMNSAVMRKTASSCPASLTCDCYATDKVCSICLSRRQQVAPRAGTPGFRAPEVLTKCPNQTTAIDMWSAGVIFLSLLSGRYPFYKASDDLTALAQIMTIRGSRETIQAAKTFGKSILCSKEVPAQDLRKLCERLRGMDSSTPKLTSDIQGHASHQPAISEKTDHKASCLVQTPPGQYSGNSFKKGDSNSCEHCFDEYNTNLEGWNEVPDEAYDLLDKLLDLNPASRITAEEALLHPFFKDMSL

With `O=C(NCCNC(=O)c1cc(Nc2cc(C3CC3)[nH]n2)nc(N2CCN(Cc3ccc(S(=O)(=O)F)cc3)CC2)n1)OC1CC/C=C/CCC1` (stereo not given), the pIC50 on UniProt P80192 (cell material: Jurkat cells) is 6.19; on UniProt P80192 (cell material: Jurkat lysate), < 4.52; on UniProt P80192 (cell material: Lysate mix), < 4.52; at UniProt Q02779, < 4.52; on TBK1 (cell material: Jurkat cells) it was 5.71; at TBK1 (cell material: Jurkat lysate) it was < 4.52. Besides, the pIC50 at TBK1 (cell material: Lysate mix) is < 4.52; at STRADA (cell material: Jurkat cells) it was 5.78; on STRADA (cell material: Jurkat lysate), < 4.52; on STRADA (cell material: Lysate mix), < 4.52; at UniProt P16234, < 4.52; on MASTL (cell material: Jurkat cells), 6.1. Besides, the pIC50 at UniProt Q04912, on CLK4 (cell material: Jurkat lysate), at CLK4 (cell material: Lysate mix), on PAK2 (cell material: Jurkat cells) and on UniProt Q15303 was < 4.52 throughout.

Turning to `Cc1cc(Nc2cc(C(=O)NCCNC(=O)OC3CC/C=C/CCC3)nc(N3CCN(Cc4ccc(S(=O)(=O)F)cc4)CC3)n2)n[nH]1` (stereo not given), the negative-log IC50 (pIC50) at UniProt P80192 (cell material: Lysate mix), on UniProt Q02779, at TBK1 (cell material: Lysate mix), at STRADA (cell material: Lysate mix), on MASTL (cell material: Lysate mix) and on UniProt Q04912 was < 4.52 in each case. Further, the pIC50 at CLK4 (cell material: Lysate mix), on PAK2 (cell material: Lysate mix) and at UniProt Q15303 was < 4.52 in each case.

As to `CCNC(=O)c1cc(Nc2cc(C)[nH]n2)nc(N2CCN(Cc3ccc(S(=O)(=O)F)cc3)CC2)n1`, the pIC50 on UniProt Q02779 was < 4.52; at UniProt Q04912 it was 4.54; at CLK4 (cell material: Lysate mix), < 4.52; at UniProt Q15303, 5.04.

Consider `C#CCNC(=O)c1cc(Nc2cc(C3CC3)[nH]n2)nc(N2CCN(Cc3ccc(S(=O)(=O)F)cc3)CC2)n1`, for which the negative-log IC50 (pIC50) was 6.42 at UniProt P80192 (cell material: Jurkat cells); 5.9 at UniProt P80192 (cell material: Jurkat lysate); 6.2 at UniProt P80192 (cell material: Lysate mix); 5.98 on TBK1 (cell material: Jurkat cells); < 4.52 at TBK1 (cell material: Jurkat lysate); 5.28 at TBK1 (cell material: Lysate mix). Besides, the negative-log IC50 (pIC50) at STRADA (cell material: Jurkat cells) was 5.99; at STRADA (cell material: Jurkat lysate) it was 5.36; on STRADA (cell material: Lysate mix), 5.7; at UniProt P16234, < 4.52; on MASTL (cell material: Jurkat cells) it was 6.15; on MASTL (cell material: Jurkat lysate) it was 6.03. For the same compound, the pIC50 is 6.74 on MASTL (cell material: Lysate mix); 5.68 on CDC7 (cell material: Jurkat cells); 6.1 on CLK4 (cell material: Jurkat cells); 4.85 on CLK4 (cell material: Jurkat lysate); 5.2 at CLK4 (cell material: Lysate mix); < 4.52 at PAK2 (cell material: Jurkat cells). For the same compound, the pIC50 at PAK2 (cell material: Jurkat lysate) is < 4.52.

Regarding `C#CCNC(=O)c1cc(Nc2cc(C)[nH]n2)nc(N2CCN(Cc3ccc(S(=O)(=O)F)cc3)CC2)n1`, the pIC50 is < 4.52 on UniProt Q02779; < 4.52 at TBK1 (cell material: Lysate mix); < 4.52 at UniProt P16234; < 4.52 at UniProt Q04912; < 4.52 at CDC7 (cell material: Lysate mix); 4.99 at UniProt Q15303.

In the case of `CCNC(=O)c1cc(Nc2cc(C3CC3)[nH]n2)nc(N2CCN(Cc3ccc(S(=O)(=O)F)cc3)CC2)n1`, the pIC50 on UniProt P80192 (cell material: Lysate mix) was 5.78; on UniProt Q02779 it was 5.14; on TBK1 (cell material: Lysate mix), 5.34; on STRADA (cell material: Lysate mix), 5.29; on UniProt P16234, < 4.52; on MASTL (cell material: Lysate mix) it was 6.85. Also, the pIC50 at UniProt Q04912 was < 4.52; at CDC7 (cell material: Lysate mix) it was 4.57; at CLK4 (cell material: Lysate mix), 5.05; on UniProt Q15303, 4.96.
